Measurements from paper PMC9188596, “Structural basis of resistance to herbicides that target acetohydroxyacid synthase” (Nature Communications, 2022).
Values joined by “and” are separate entries in the source; they are usually repeats but may differ in a detail not shown here. Identical values can stand only once.

Assays:
[1] = target: T1, AtAHAS W574L mutant (Arabidopsis thaliana, UniProt P17597, W574L); assay: Inhibition of AHAS activity by ubiquinone Q0; assay type: biochemical; details: read-out: % inhibition of AHAS activity by 0.5 mM Q0
Method: (§1) Next, we investigated how the mutants responded to regulation by redox signaling molecules using ubiquinone Q0 (Q0) as an example[14].
(§2) Supplementary Figure 5. Inhibition of WT AtAHAS and the mutants by Q0. AtAHAS was incubated with 100 mM pyruvate at 30°C. After reaching full activation, the inhibition reaction was initiated by addition of 0.5 mM Q0 to the sample cell. After seven minutes incubation with Q0, 1 mM DTT was added to reduce the remaining Q0, triggering re-activation of the enzyme.
(§3) Source data are provided with this paper.
(§4) (1 picture or pasted object on this page, not shown here)

[2] = target: T2, AtAHAS P197L mutant (Arabidopsis thaliana, UniProt P17597, P197L); assay: Inhibition of AHAS activity by ubiquinone Q0; assay type: biochemical; details: read-out: % inhibition of AHAS activity by 0.5 mM Q0
Method: as §1, §2, §3, §4

[3] = target: T3, WT AtAHAS (Arabidopsis thaliana, UniProt P17597); assay: Inhibition of AHAS activity by ubiquinone Q0; assay type: biochemical; details: read-out: % inhibition of AHAS activity by 0.5 mM Q0
Method: as §1, §2, §3, §4

[4] = target: T4, AtAHAS P197T mutant (Arabidopsis thaliana, UniProt P17597, P197T); assay: Inhibition of AHAS activity by ubiquinone Q0; assay type: biochemical; details: read-out: % inhibition of AHAS activity by 0.5 mM Q0
Method: as §1, §2, §3, §4

[5] = target: T5, AtAHAS S653T mutant (Arabidopsis thaliana, UniProt P17597, S653T); assay: Inhibition of AHAS activity by ubiquinone Q0; assay type: biochemical; details: read-out: % inhibition of AHAS activity by 0.5 mM Q0
Method: as §1, §2, §3, §4

[6] = target: T1, AtAHAS W574L mutant; assay: biochemical
Method: (§5) Standard assays were performed using a continuous spectrophotometric method measuring the disappearance of pyruvate. The standard buffer contained 50 mM potassium phosphate, pH 7.2, 1 mM ThDP, 10 mM MgCl2, and 10 µM FAD. The concentration of pyruvate was in the range 100–160 mM, as described in the text, methods, or figure legends.
(§6) Supplementary Figure 6. Measurement of the Ki values for WT AtAHAS and the mutants.
(§7) The error bars represent the standard error of the mean of two independent replicates. [I] =
(§8) inhibitor concentration. Source data are provided with this paper.
as §4

[7] = target: T2, AtAHAS P197L mutant; assay: biochemical
Method: as §5, §6, §7, §8, §4

[8] = target: T4, AtAHAS P197T mutant; assay: biochemical
Method: as §5, §6, §7, §8, §4

[9] = target: T5, AtAHAS S653T mutant; assay: biochemical; details: Ki, S653T mutant; ± standard error of the mean
Method: as §5, §6, §7, §8, §4

[10] = target: T1, AtAHAS W574L mutant; assay type: biochemical; details: NAI = no accumulative inhibition detected
Method: as §5
(§9) AtAHAS was assayed in the standard assay buffer containing 160 mM pyruvate, at 30 °C. For AtAHAS activation the progress curve corresponding to the lag-phase was fitted to Eq. (8) of Lonhienne et al.[14]. For the time dependent accumulative inhibition of AtAHAS the progress curves were fitted to Equation 9 of Lonhienne et al.[12].
(§10) Supplementary Figure 8. Measurement of the rate constants of accumulative inhibition for WT AtAHAS and its mutants. The progress curves were fitted to the equation of accumulative inhibition (Equation 7 2). The rate constants of enzyme inactivation ( kiapp) and enzyme recovery (k3) were measured in triplicate. Source data are provided with this paper. […]

[11] = target: T2, AtAHAS P197L mutant; assay type: biochemical; details: NAI = no accumulative inhibition detected
Method: as §5, §9, §10

[12] = target: T4, AtAHAS P197T mutant; assay type: biochemical; details: P197T, NAI = no accumulative inhibition detected
Method: as §5, §9, §10

[13] = target: T5, AtAHAS S653T mutant; assay type: biochemical
Method: as §5, §9, §10

[14] = target: T3, WT AtAHAS; assay type: biochemical
Method: as §5, §9
Supplementary Figure 8. Measurement of the rate constants of accumulative inhibition for WT AtAHAS and its mutants. The progress curves were fitted to the equation of accumulative inhibition (Equation 7 2). The rate constants of enzyme inactivation ( kiapp) and enzyme recovery (k3) were measured in triplicate. Source data are provided with this paper.

[15] = target: T3, WT AtAHAS; assay: Ki of herbicides, continuous spectrophotometric AHAS assay; assay type: biochemical; details: Ki, WT AtAHAS; ± standard error of the mean
Method: as §5, §6, §7, §8, §4

[16] = S653T, individual replicate of triplicate
[17] = individual replicate of triplicate

## COC1=C(OC)C(=O)C(C)=CC1=O [Q0, ubiquinone Q0]
[1]
  inhibition at 500 µM: 97%
[2]
  inhibition at 500 µM: 89%
[3]
  inhibition at 500 µM: 82%
[4]
  inhibition at 500 µM: 91%
[5]
  inhibition at 500 µM: 85%

## COc1cc(OC)nc(NC(=O)NS(=O)(=O)N(C)S(C)(=O)=O)n1 [AS, amidosulfuron]
[6]; Ki (Supplementary Figure 6), W574L, fit of % activity remaining vs [I], two independent replicates
  Ki: 871 ± 66.5 µM
[6]; Ki, W574L mutant, ± standard error of the mean
  Ki: 870 ± 60 µM
[7]; Ki (Supplementary Figure 6), P197L, fit of % activity remaining vs [I], two independent replicates
  Ki: 93.5 ± 17.1 µM
[7]; Ki, P197L mutant, ± standard error of the mean
  Ki: 93.5 ± 17.1 µM
[8]; Ki (Supplementary Figure 6), P197T, fit of % activity remaining vs [I], two independent replicates
  Ki: 61.4 ± 8.92 µM
[8]; Ki, P197T mutant, ± standard error of the mean
  Ki: 61.4 ± 8.9 µM
[9]
  Ki: 0.492 ± 0.025 µM
[10]; 160 mM pyruvate, 30 °C
  k3 (rate of recovery): NAI
  kiapp (apparent rate of enzyme inactivation): NAI
[10]
  kiapp/k3 (efficiency of accumulative inhibition): NAI
[11]; 160 mM pyruvate, 30 °C
  k3 (rate of recovery): NAI
  kiapp (apparent rate of enzyme inactivation): NAI
[11]
  kiapp/k3 (efficiency of accumulative inhibition): NAI
[12]; 160 mM pyruvate, 30 °C
  k3 (rate of recovery): NAI
  kiapp (apparent rate of enzyme inactivation): NAI
[12]
  kiapp/k3 (efficiency of accumulative inhibition): NAI
[13]; S653T
  kiapp/k3 (efficiency of accumulative inhibition): 95
[13]; S653T vs WT
  efficiency of accumulative inhibition (kiapp/k3) compared to WT (in words): increased
[13]; S653T, 160 mM pyruvate, 30 °C, ± SEM
  k3 (rate of recovery): 0.02 ± 0.002 min⁻¹
[13]; [16]
  k3, single progress curve (Supplementary Figure 8): 0.02 min⁻¹ and 0.023 min⁻¹ and 0.021 min⁻¹
  kiapp, single progress curve (Supplementary Figure 8): 1.93 min⁻¹ and 1.94 min⁻¹ and 2.21 min⁻¹
[14]
  kiapp/k3 (efficiency of accumulative inhibition): 20
[14]; 160 mM pyruvate, 30 °C, ± SEM
  k3 (rate of recovery): 0.02 ± 0.001 min⁻¹
  kiapp (apparent rate of enzyme inactivation): 0.39 ± 0.06 min⁻¹
[14]; [17]
  k3, single progress curve (Supplementary Figure 8): 0.021 min-1 and 0.02 min-1 (2×)
  kiapp, single progress curve (Supplementary Figure 8): 0.34 min⁻¹ and 0.46 min⁻¹ and 0.36 min⁻¹
[15]
  Ki: 4.2 ± 0.6 µM
